Test results as given in BindingDB's records for doi:10.1016/j.bmcl.2005.09.022 (Bristol-Myers Squibb Pharmaceutical Research Institute, 2005).

Molecular target: C-C chemokine receptor type 4 (Mus musculus) (UniProt P51680)
Assay: Inhibition of chemotaxis of murine CCR4 transfected L1.2 cells

C-C chemokine receptor type 4 (Mus musculus), sequence (P51680 whole entry, looked up): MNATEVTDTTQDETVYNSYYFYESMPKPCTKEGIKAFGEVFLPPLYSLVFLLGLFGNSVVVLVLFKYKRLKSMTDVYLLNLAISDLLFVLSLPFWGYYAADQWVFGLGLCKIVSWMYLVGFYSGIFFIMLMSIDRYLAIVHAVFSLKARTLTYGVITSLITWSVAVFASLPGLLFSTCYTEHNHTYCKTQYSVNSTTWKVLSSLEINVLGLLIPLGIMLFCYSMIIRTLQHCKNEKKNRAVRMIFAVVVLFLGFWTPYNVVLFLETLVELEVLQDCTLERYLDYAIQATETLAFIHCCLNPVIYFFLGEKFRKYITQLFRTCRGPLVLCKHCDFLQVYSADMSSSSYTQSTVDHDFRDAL

For `O=C([C@H]1CCCCN1)N1CCN(c2nccc(NCc3ccc(Cl)cc3Cl)n2)CC1` [(R)-(4-(4-(2,4-dichlorobenzylamino)pyrimidin-2-yl)piperazin-1-yl)(piperidin-2-yl)methanone], the IC50 was 380 nM.
